From PubChem BioAssay (NCI)
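Interpolation was linear, between the two tested concentrations surrounding the appropriate level; five concentrations were tested over 48 hours in 96-well plates. At the GI50, growth is halved. At the TGI there is no net growth.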

Test system: HS 578T breast
Experiment: NCI anticancer screen, dose series, 48 h

`CCn1c(=O)c2c3cc(O)ccc3oc2c2ccc(O)cc21` and `O=c1nc2c(c(-c3cccc(Cl)c3)[nH]1)COC/C2=C\c1cccc(Cl)c1` cannot be ordered by TGI: greater than 100 µM for the first, greater than 100 µM for the second.

`CCOC(=O)c1c(N)n(-c2ccccc2)c(=S)n(-c2ccccc2)c1=O` and `Cc1cccc(N(CCC#N)S(=O)(=O)c2ccccc2)c1` cannot be ordered by TGI: greater than 100 µM for the first, greater than 100 µM for the second.

Compared with `COc1cccc(C2c3cc4c(cc3OC(N3CCCC3)C2C)OCO4)c1OC` (stereo not drawn), `COc1cc([C@@H]2c3cc4c(cc3C[C@H]3COC(=O)[C@@H]32)OCO4)cc(OC)c1OC` is 1600-fold lower in TGI: 11.1 µM for the first, 0.00715 µM for the second.

Going from `COc1cc2c(cc1OC)C(=O)/C(=C/c1cc(C)c(O)c(C)c1)C2` to `CCOc1ccc(N=C/C=C(\Cl)c2ccc3ccccc3c2)cc1`, the TGI falls from greater than 100 µM to 82.2 µM.

Going from `C[C@]12CC/C(=N\O)C=C1CC[C@@H]1[C@@H]2CC[C@]2(C)C(=N/O)/C(=C/c3cccnc3)C[C@@H]12` to `C[C@@H]1C[C@H](O)[C@]2(O)O[C@@H]3C[C@@]4(C=O)[C@@H](CC=C5[C@@H]4CC[C@]4(C)[C@@H](C6=CC(=O)OC6)CC[C@]54O)C[C@H]3O[C@@H]2O1`, the TGI falls from 18.6 µM to 0.191 µM (97-fold).

`CC(C)(CO)N1C(=O)c2ccccc2C1(O)c1ccc(Cl)cc1` (stereo not drawn) and `N#Cc1c(OCCF)c2ccccc2n2c1nc1ccccc12` cannot be ordered by TGI: greater than 100 µM for the first, greater than 100 µM for the second.

Test system: HOP-62 NSCLC
Experiment: NCI anticancer screen, dose series, 48 h

First: COc1ccc(NC2Oc3cc4c(cc3C(c3cc(OC)c(OC)c(OC)c3)C2C)OCO4)cc1 (stereo not drawn)
Second: COc1cc([C@@H]2c3cc4c(cc3C[C@H]3COC(=O)[C@@H]32)OCO4)cc(OC)c1OC
The TGI of the first is 5.8-fold lower: 6.98 µM for the first, 40.5 µM for the second.

`Cc1ccc(C2=Nc3c(c(C)nn3-c3ccccc3)N=C(C(=O)O)C2)cc1` and `Cc1cc2cccc(Cl)c2nc1C(=O)c1ccccc1` cannot be ordered by TGI: greater than 10 µM for the first, greater than 100 µM for the second.

First: CC1CC(C#N)=C2NCCCCN2C1=O (stereo not drawn)
Second: COc1cccc(C2c3cc4c(cc3OC(N3CCCC3)C2C)OCO4)c1OC (stereo not drawn)
The TGI of the first is higher: greater than 100 µM for the first, 26.7 µM for the second.

`O=C(OCc1ccccc1)OOC(=O)OCc1ccccc1` and `O=C(O)c1ccc(NS(=O)(=O)Cc2ccccc2)cc1` cannot be ordered by TGI: greater than 100 µM for the first, greater than 100 µM for the second.

`Cc1ccc(C(=O)Nc2ccc(CP(=O)(O)O)cc2)cc1NC(=O)c1cccc(NC(=O)Nc2cccc(C(=O)Nc3cc(C(=O)Nc4ccc(CP(=O)(O)O)cc4)ccc3C)c2)c1` and `CCN(CCCN(CC)C(=O)N[C@@H](Cc1ccccc1)C(=O)NC)C(=O)N[C@@H](Cc1ccccc1)C(=O)NC` cannot be ordered by TGI: greater than 100 µM for the first, greater than 100 µM for the second.

Compared with `CN(O)C(=O)Cc1ccc(OCc2cccc(Cl)c2)cc1`, `CCOc1ccc(N=C/C=C(\Cl)c2ccc3ccccc3c2)cc1` is lower in TGI: greater than 100 µM for the first, 29.8 µM for the second.

`CC(C)c1c(P(=O)(c2ccccc2)c2ccccc2)n(C)c2ccccc12` and `c1ccc(N=c2snc(-c3ccccc3)s2)cc1` cannot be ordered by TGI: greater than 100 µM for the first, greater than 100 µM for the second.

`CCOP(=O)(OCC)/C(F)=C/c1ccccc1` and `CC(C)/C(Cl)=N\OC(=O)NNc1ccccc1` cannot be ordered by TGI: greater than 100 µM for the first, greater than 100 µM for the second.

`O=C(/C=C/c1cccs1)c1ccc(Cl)cc1` and `CC(C)(CO)N1C(=O)c2ccccc2C1(O)c1ccc(Cl)cc1` (stereo not drawn) cannot be ordered by TGI: greater than 100 µM for the first, greater than 100 µM for the second.

First: O=C1/C(=C/c2ccc(F)cc2)CNC/C1=C\c1ccc(F)cc1
Second: O=c1nc2c(c(-c3cccc(Cl)c3)[nH]1)COC/C2=C\c1cccc(Cl)c1
The TGI of the first is lower: 4.56 µM for the first, greater than 100 µM for the second.

Compared with `O=C1OC[C@@H]2Cc3c([nH]c4ccccc34)[C@@H](c3ccc(O)cc3)N12`, `N#Cc1c2c(c(Nc3ccc(F)cc3)n3c1nc1ccccc13)CCC2` is lower in TGI: greater than 84.6 µM for the first, 11.2 µM for the second.

`CCN(CC)CCCn1c(=O)c2cccnc2n2c3c(=O)n(C)c(=O)n(C)c3nc12` and `CCn1c(=O)c2c3cc(O)ccc3oc2c2ccc(O)cc21` cannot be ordered by TGI: greater than 100 µM for the first, greater than 100 µM for the second.

`CN(C)c1ccc(/C(Br)=C2\OC(=O)c3ccccc32)cc1` and `COc1ccc2c(c1)C(=O)c1ccccc1C2` cannot be ordered by TGI: greater than 100 µM for the first, greater than 100 µM for the second.

`CC1=C2c3ccccc3N(C(=O)/C=C/C(=O)O)[C@H]2[C@H]2C(=O)OC(=O)[C@H]2C1` and `CC(=O)CC(=O)c1cc2c(=O)oc(C)cc2oc1=O` cannot be ordered by TGI: greater than 10 µM for the first, greater than 37.5 µM for the second.

`CC(=O)Nc1ccc(Cl)c(Cl)c1` and `Cc1cccc(N(CCC#N)S(=O)(=O)c2ccccc2)c1` cannot be ordered by TGI: greater than 100 µM for the first, greater than 100 µM for the second.

`CCOC(=O)C1CC(O)C(=O)N1C` (stereo not drawn) and `CC(C)=CC1C(C(=O)O)C1(C)C` (stereo not drawn) cannot be ordered by TGI: greater than 100 µM for the first, greater than 750 µM for the second.

`COc1ccc(CNc2nc3ccc(C(F)(F)F)cc3nc2-c2ccccc2)cc1OC` and `COc1cccc(-c2nc(-c3cnccn3)n(Cc3ccccc3)n2)c1` cannot be ordered by TGI: greater than 100 µM for the first, greater than 100 µM for the second.

Compared with `COc1cc2c(cc1OC)C(=O)/C(=C/c1cc(C)c(O)c(C)c1)C2`, `COC1C=CC23c4cc5c(cc4C(O)OC2CN(C)C3C1)OCO5` (stereo not drawn) is lower in TGI: greater than 100 µM for the first, 17.9 µM for the second.

Going from `C[C@]12CC/C(=N\O)C=C1CC[C@@H]1[C@@H]2CC[C@]2(C)C(=N/O)/C(=C/c3cccnc3)C[C@@H]12` to `C[C@@H]1C[C@H](O)[C@]2(O)O[C@@H]3C[C@@]4(C=O)[C@@H](CC=C5[C@@H]4CC[C@]4(C)[C@@H](C6=CC(=O)OC6)CC[C@]54O)C[C@H]3O[C@@H]2O1`, the TGI falls from 85.5 µM to 0.0319 µM (2700-fold).

`C=CCCCC12CCCc3cccc(c31)NC2=O` (stereo not drawn) and `N#Cc1c(OCCF)c2ccccc2n2c1nc1ccccc12` cannot be ordered by TGI: greater than 100 µM for the first, greater than 100 µM for the second.

`COc1cc([C@@H]2c3cc4c(cc3C[C@H]3COC(=O)[C@@H]32)OCO4)cc(OC)c1OC` was tested, and the GI50 was 0.00577 µM.
